From patent US3943154A, “Acylamides of beta-cyano-ethenesulfonyl substituted aminoarenes” (Sanitized Incorporated, priority 1973, dated 1976)
Values after ≈ are worked out from the molar mass of the structure shown. Read-outs that look alike come from different tables or passages of the source.

Experiments:
Type in all cases: cell-based
[1] = tested on: Salmonella typhosa ATCC 6539; test: button assay, antibacterial activity; settings: Salmonella enterica, read-out: Antibacterial Activity S.typhosa, minimum inhibitory concentration
Experimental: (§1) In the test program, the minimum inhibitory concentrations of the respective test compounds against various Gram positive and Gram negative bacteria were determined, employing the "button assay" method. The test organisms utilized were standard cultures of Staphylococcus aureus ATCC 6538 DR, a penicillin resistant Gram positive bacterium; Bacillus subtilis ATCC 9525, a spore-forming Gram positive bacillus; and Salmonella typhosa ATCC 6539, a Gram negative bacterium.
(§2) The highest concentration was ordinarily 1000 ppm (parts per million) [0.1%], and dilutions were made in suitable steps down to 1 ppm. Penicillin test buttons of filter paper having a diameter of 13 mm (socalled "Peniassay" buttons) were added to each solution within a test tube and left submerged for five minutes. They were then removed and left to dry on paper towels under sterile conditions. A laminar flow sterile cabinet equipped with ultraviolet lamps operating under positive air pressure was utilized for this purpose.
(§3) An 18-24 hour old nutrient broth culture (standard 1.5% nutrient agar) prepared in conventional manner from a slant and having passed through at least three consecutive daily transfers was used for inoculation. Melted and cooled sterile agar (45° C) was inoculated with the respective broth cultures by addition of 20 ml broth per liter of agar. The agar was then dispensed into Petri dishes (20 ml per plate) under sterile conditions and allowed to harden.
(§4) The test buttons were placed on the surface of the hardened agar and the plates incubated for 24 hours at 37° C. Where, on inspection, a clear zone of inhibition appeared around the button, inhibition of growth was presumed. Where growth touched the button there was no inhibition. For each of the test compounds, the lowest concentration showing a clear zone is reported as the inhibitory concentration in the following table. […]

[2] = tested on: Staphylococcus aureus ATCC 6538 DR; test: button assay, antibacterial activity; settings: Staphylococcus aureus, ATCC6538, 24 h, read-out: Antibacterial Activity S.aureus, minimum inhibitory concentration
Experimental: as §1
as §2, with “In the tests the respective compounds were dissolved in a suitable solvent, usually acetone or dimethylsulfoxide, to give solutions with known concentrations of active material. The highest” for “The highest”
as §3, §4

[3] = tested on: Bacillus subtilis ATCC 9525; test: button assay, antibacterial activity; settings: Bacillus subtilis, ATCC9525, lowest concentration showing a clear zone of inhibition, 24 hours at 37° C, read-out: Antibacterial Activity B.subtilis, minimum inhibitory concentration
Experimental: as §1
as §2, with “In the tests the respective compounds were dissolved in a suitable solvent, usually acetone or dimethylsulfoxide, to give solutions with known concentrations of active material. The highest” for “The highest”
as §3
The test buttons were placed on the surface of the hardened agar and the plates incubated for 24 hours at 37° C. Where, on inspection, a clear zone of inhibition appeared around the button, inhibition of growth was presumed. Where growth touched the button there was no inhibition. For each of the test compounds, the lowest concentration showing a clear zone is reported as the inhibitory concentration in the following table.
(§5) The button assay and agar incorporation tests were also utilized to determine the corresponding inhibitory concentrations of various control materials, viz., the following well known commercial antimicrobials and fungicides: hexachlorophene, tribromosalicylanilide, trichlorocarbanilide,Captan (N-(trichloromethylthio)4cyclohexene-1,2-dicarboximide) and Zineb (zinc ethylenebis[dithiocarbamate]). The minimum inhibitory concentration of each of the various control materials against the respective organisms is indicated in Table IV below: […]

[4] = tested on: Aspergillus niger ATCC 6257; test: agar incorporation test, antifungal activity; settings: Aspergillus niger, ATCC6257, 96 h, lowest concentration showing no growth or sporulation, four days at 28° C, read-out: Antifungal Activity A. niger, minimum inhibitory concentration
Experimental: The anti-fungal activity of the test compounds was determined employing the "agar incorporation" technique, utilizing spores from Aspergillus niger ATCC 6257 as a representative organism. Test solutions were prepared as described above in acetone or dimethylsulfoxide. A source of carbon agar such as Mycophil Agar was used. The agar was melted and cooled and placed in a constant temperature water bath at 45° C + 3° C. About 13-14 ml of the agar was then poured into a sterile Petri dish, the required amount of test solution to give the desired concentration immediately added thereto, and the dish rotated and swirled by hand to obtain a uniform mixture before the agar hardened.
The hardened plates were inoculated with the test organism by fishing spores from a 7-14 day old slant with the inocculating needle and spotting the spores on the plates, usually in several places. The inoculated plates were incubated for four days in an incubator maintained at 28° C +2° C and with a relative humidity of 95%+.
The lowest concentration of each test compound showing no growth or sporulation of the test organism was taken as the minimum inhibitory concentration and is reported in the following tabulation.
as §5

[5] = button assay, lowest concentration showing a clear zone of inhibition, 24 hours at 37° C

Structure (SMILES) | MIC ([1]; 24 h) | MIC [2] | MIC [3] | MIC [4] | MIC [1, 5]
CC(=O)Nc1ccc(S(=O)(=O)C=CC#N)cc1 [3-(4-acetamidobenzenesulfonyl)acrylonitrile, reference compound] | 20 µg/mL (≈ 79.9 µM) | 50 µg/mL (≈ 200 µM) | 20 µg/mL (≈ 79.9 µM) | > 1000 µg/mL | –
N#CC=CS(=O)(=O)c1ccc(N)cc1 [3-(4-aminobenzenesulfonyl)acrylonitrile, reference compound] | 20 µg/mL (≈ 96 µM) | 20 µg/mL (≈ 96 µM) | 20 µg/mL (≈ 96 µM) | 300 µg/mL (≈ 1440 µM) | –
O=C1C2CC=CCC2C(=O)N1SC(Cl)(Cl)Cl (stereo not shown) [Captan, N-(trichloromethylthio)4cyclohexene-1,2-dicarboximide, reference compound] | – | 25 µg/mL (≈ 83.2 µM) | 100 µg/mL (≈ 333 µM) | 300 µg/mL (≈ 998 µM) | 25 µg/mL (≈ 83.2 µM)
CS(=O)(=O)Nc1ccc(S(=O)(=O)C=CC#N)cc1 [Example 1, 3-(4-methanesulfonylamidobenzenesulfonyl)acrylonitrile] | 1000 µg/mL (≈ 3490 µM) | 300 µg/mL (≈ 1050 µM) | 100 µg/mL (≈ 349 µM) | > 1000 µg/mL | –
CCS(=O)(=O)Nc1ccc(S(=O)(=O)C=CC#N)cc1 [Example 2, 3-(4-ethanesulfonamidobenzenesulfonyl)acrylonitrile] | 20 µg/mL (≈ 66.6 µM) | 100 µg/mL (≈ 333 µM) | 20 µg/mL (≈ 66.6 µM) | > 1000 µg/mL | –
CCCCS(=O)(=O)Nc1ccc(S(=O)(=O)C=CC#N)cc1 [Example 3, 3-(4-butanesulfonamidobenzenesulfonyl)acrylonitrile] | 50 µg/mL (≈ 152 µM) | 50 µg/mL (≈ 152 µM) | 20 µg/mL (≈ 60.9 µM) | > 1000 µg/mL | –
CCCCCCCCCCCCCCCCS(=O)(=O)Nc1ccc(S(=O)(=O)C=CC#N)cc1 [Example 4, 3-([…])ACRYLONITRILE] | 50 µg/mL (≈ 101 µM) | 20 µg/mL (≈ 40.3 µM) | 20 µg/mL (≈ 40.3 µM) | 500 µg/mL (≈ 1010 µM) | –
C=CS(=O)(=O)Nc1ccc(S(=O)(=O)C=CC#N)cc1 [Example 9, 3-(4-[…])ACRYLONITRILE] | 50 µg/mL (≈ 168 µM) | 20 µg/mL (≈ 67 µM) | 10 µg/mL (≈ 33.5 µM) | 100 µg/mL (≈ 335 µM) | –
N#CC=CS(=O)(=O)c1ccc(NS(=O)(=O)C=Cc2ccccc2)cc1 [Example 10, 3-[4-(2-phenylethenesulfonamido)benzenesulfonyl]acrylonitrile] | 5 µg/mL (≈ 13.4 µM) | 5 µg/mL (≈ 13.4 µM) | 5 µg/mL (≈ 13.4 µM) | > 1000 µg/mL | –
N#CC=CS(=O)(=O)c1ccc(NS(=O)(=O)c2ccccc2)cc1 [Example 11, 3-(4-benzene-sulfonamidobenzenesulfonyl)acrylonitrile] | 50 µg/mL (≈ 144 µM) | 20 µg/mL (≈ 57.4 µM) | 50 µg/mL (≈ 144 µM) | > 1000 µg/mL | –
Cc1ccc(S(=O)(=O)C=CC#N)cc1NS(=O)(=O)c1ccccc1 [Example 12, 3-(3-benzenesulfonamido-4-methylbenzenesulfonyl)acrylonitrile] | 100 µg/mL (≈ 276 µM) | 100 µg/mL (≈ 276 µM) | 100 µg/mL (≈ 276 µM) | > 1000 µg/mL | –
Cc1ccc(S(=O)(=O)Nc2ccc(S(=O)(=O)C=CC#N)cc2)cc1 [Example 13, 3-[4-(4-methylbenzenesulfonamido)benzenesulfonyl]acrylonitrile] | 5 µg/mL (≈ 13.8 µM) | 5 µg/mL (≈ 13.8 µM) | 5 µg/mL (≈ 13.8 µM) | > 1000 µg/mL | –
Cc1ccccc1S(=O)(=O)Nc1ccc(S(=O)(=O)C=CC#N)cc1 [Example 16, 3-[4-(2-METHYLBENZENESULFONAMIDO)BENZENESULFONYL]ACRYLONITRILE] | 20 µg/mL (≈ 55.2 µM) | 20 µg/mL (≈ 55.2 µM) | 20 µg/mL (≈ 55.2 µM) | > 1000 µg/mL | –
CCCCCCCCCCCCc1ccc(S(=O)(=O)Nc2ccc(S(=O)(=O)C=CC#N)cc2)cc1 [Example 17] | 10 µg/mL (≈ 19.4 µM) | 5 µg/mL (≈ 9.68 µM) | 10 µg/mL (≈ 19.4 µM) | 300 µg/mL (≈ 581 µM) | –
Cc1cc(C)c(S(=O)(=O)Nc2ccc(S(=O)(=O)C=CC#N)cc2)c(C)c1 [Example 18, 3-[4-(2,4,6-trimethylbenzenesulfonamido)benzenesulfonyl]acrylonitrile] | 10 µg/mL (≈ 25.6 µM) | 5 µg/mL (≈ 12.8 µM) | 10 µg/mL (≈ 25.6 µM) | 100 µg/mL (≈ 256 µM) | –
CC(C)c1cc(C(C)C)c(S(=O)(=O)Nc2ccc(S(=O)(=O)C=CC#N)cc2)c(C(C)C)c1 [Example 19, 3-[4-(2,4,6-tri-isopropylbenzenesulfonamido)benzenesulfonyl]acrylonitrile] | 1000 µg/mL (≈ 2110 µM) | 1000 µg/mL (≈ 2110 µM) | 1000 µg/mL (≈ 2110 µM) | > 1000 µg/mL | –
N#CC=CS(=O)(=O)c1ccc(NS(=O)(=O)c2ccc(Cl)cc2)cc1 [Example 20, 3-[4-(4-chlorobenzenesulfonamido)benzenesulfonyl]acrylonitrile] | 10 µg/mL (≈ 26.1 µM) | 20 µg/mL (≈ 52.2 µM) | 5 µg/mL (≈ 13.1 µM) | > 1000 µg/mL | –
N#CC=CS(=O)(=O)c1ccc(NS(=O)(=O)c2ccc([N+](=O)[O-])cc2)cc1 [Example 22.1, 3-[4-(4-nitrobenzenesulfonamido)benzenesulfonyl]acrylonitrile] | 50 µg/mL (≈ 127 µM) | 100 µg/mL (≈ 254 µM) | 50 µg/mL (≈ 127 µM) | > 1000 µg/mL | –
N#CC=CS(=O)(=O)c1ccc(NS(=O)(=O)c2ccccc2[N+](=O)[O-])cc1 [Example 22.3, 3-[4-(2-nitrobenzenesulfonamido)benzenesulfonyl]acrylonitrile] | 100 µg/mL (≈ 254 µM) | 10 µg/mL (≈ 25.4 µM) | ~50 µg/mL (≈ 127 µM) | > 1000 µg/mL | –
N#CC=CS(=O)(=O)c1ccc(NS(=O)(=O)c2ccc([N+](=O)[O-])cc2[N+](=O)[O-])cc1 [Example 23.1, 3-[4-(2,4-dinitrobenzenesulfonamido)benzenesulfonyl]acrylonitrile] | – | 5 µg/mL (≈ 11.4 µM) | 50 µg/mL (≈ 114 µM) | 100 µg/mL (≈ 228 µM) | 50 µg/mL (≈ 114 µM)
N#CC=CS(=O)(=O)c1ccc(NS(=O)(=O)c2ccc(Cl)c([N+](=O)[O-])c2)cc1 [Example 23.2, 3-[4-(4-chloro-3-nitrobenzenesulfonamido)benzenesulfonyl]acrylonitrile] | 100 µg/mL (≈ 234 µM) | 100 µg/mL (≈ 234 µM) | 300 µg/mL (≈ 701 µM) | 1000 µg/mL (≈ 2340 µM) | –
N#CC=CS(=O)(=O)c1ccc(NS(=O)(=O)c2ccc(Cl)cc2[N+](=O)[O-])cc1 [Example 23.3, 3-[4-(4-chloro-2-nitrobenzenesulfonamido)benzenesulfonyl]acrylonitrile] | 20 µg/mL (≈ 46.7 µM) | 10 µg/mL (≈ 23.4 µM) | 10 µg/mL (≈ 23.4 µM) | 100 µg/mL (≈ 234 µM) | –
N#CC=CS(=O)(=O)c1ccc(NS(=O)(=O)c2cc(Cl)cc(Cl)c2O)cc1 [Example 24, 3-[4-(3,5-dichloro-2-hydroxybenzenesulfonamido)-benzenesulfonyl]acrylonitrile] | 300 µg/mL (≈ 692 µM) | 300 µg/mL (≈ 692 µM) | 300 µg/mL (≈ 692 µM) | 1000 µg/mL (≈ 2310 µM) | –
N#CC=CS(=O)(=O)c1ccc(NS(=O)(=O)c2ccc(O)c(C(=O)O)c2)cc1 [Example 25, 3-[4-(4-HYDROXY-3-[…])-BENZENESULFONYL]ACRYLONITRILE] | 50 µg/mL (≈ 122 µM) | 50 µg/mL (≈ 122 µM) | 50 µg/mL (≈ 122 µM) | 500 µg/mL (≈ 1220 µM) | –
N#CC=CS(=O)(=O)c1ccc(NS(=O)(=O)c2cccc(C(=O)O)c2)cc1 [Example 26, 3-[4-(3-carboxybenzenesulfonamido)-benzenesulfonyl]acrylonitrile] | 10 µg/mL (≈ 25.5 µM) | 10 µg/mL (≈ 25.5 µM) | 10 µg/mL (≈ 25.5 µM) | > 1000 µg/mL | –
